Assay results published in patent US20060281901A1, “Method for the production of amyloid-beta peptide using ubiquitin” (priority 2005, published 2006).

Legend:
[1] = system: Human neuroblastoma SH-SY5Y cell line; test: MTT assay of cell activity (mitochondria dehydrogenase activity); assay type: cell-based; conditions: for degree of suppression of the cell activity by concentration (MTT): SH-SY5Y cells, 1, 2 or 4 μM, 24 hrs, FIG. 4A
Procedure: To compare the physiological activity of the genetic recombinant amyloid-β peptide produced according to the present invention with that of the amyloid-β peptide produced by a chemical synthetic method, their mitochondrial activities in eykaryotic cells were examined as follows:
First, 0.45 mg of the amyloid-β peptide prepared in Example 3 was dissolved in 20 μl of dimethyl sulfoxide, and 980 μl of DMEM was added thereto, to prepare the amyloid-β peptide solution at a concentration of 100 μM, which was stored at 4[…] for 24 hrs and subjected to centrifugation to separate the supernatant from the precipitate. The supernatant was distributed to an eppendorf tube at a volume of 50 μl and stored at −80[…].
(§1) Human neuroblastoma SH-SY5Y cell line (ATCC CRL-2266) was suspended in DMEM containing 10% FBS, distributed to each well of a 96-well plate at a concentration of 7×10^3 cells/well, and then, cultured at 37 °C for 24 hrs. The genetic recombinant amyloid-β peptide solution prepared above was added to each well at a concentration of 1, 2 or 4 μM, and the well plate was incubated at 37 °C for 24 hrs. The cell activity was measured by means of MTT (3-(4,5-dimethylthiazol-2-yl)-2,5-diphenyltetrazolium bromide) assay which is capable of measuring the in vivo mitochondria dehydrogenase activity. MTT was added to each well at a concentration of 0.8 mg/ml, and the reactants in the well were allowed to react at 37 °C for 5 hrs to induce in vivo dehydrogenase reaction of mitochondria. Formazan crystals generated from such reaction were dissolved in dimethyl sulfoxide and its adsorbance was measured at 550 nm.
Also shown in FIG. [[4a]]4A are the results obtained using the recombinant ubiquitin (H6Ub: ●) control, the ubiquitin-amyloid-β peptide fusion protein (H6Ub-Aβ42: ▪) and the chemically synthesized amyloid-β peptide (Aβ42: □).

[2] = system: Human neuroblastoma SH-SY5Y cell line; test: level of apoptosis by trypan blue staining; assay type: cell-based; conditions: 5 μM, 36 hrs, FIG. 4C
Procedure: as §1
After the cells were treated with 5 μM of the amyloid-β peptide for 36 hrs, black cells stained with trypan blue were examined to determine the level of apoptosis induced.

[3] = listed as recombinant amyloid-β peptide

With “rAβ42: genetic recombinant amyloid-β peptide (amyloid-beta42, SEQ ID NO: 19) cleaved from a ubiquitin fusion protein expressed in E. coli” the “changes in the cell activity according to the treatment time (MTT)” value ([1]; SH-SY5Y cells, 5 μM, 12, 24 and 48 hrs, FIG. 4B) was “as the treatment time becomes longer, the cell activity becomes further reduced”, the “degree of suppression of the cell activity by concentration (MTT)” value [1] was “can suppress the cell activity just like the chemically synthesized amyloid-β peptide” and the “degree of suppression of the cell activity by concentration (MTT)” value [1, 3] was “can suppress the cell activity”. The “level of apoptosis induced (trypan blue staining)” value [2] was “showed an apoptotic activity, which was significantly higher than the recombinant ubiquitin (H6Ub) or ubiquitin-amyloid fusion protein (H6Ub-Aβ42), the activity being equal to, or slightly higher than, the chemically synthesized amyloid-β peptide (Aβ42)” and the “level of apoptosis induced (trypan blue staining)” value [2, 3] was “induce apoptosis to an extent which is equal to that achievable with chemically synthesized amyloid-β peptide”.
